Results from patent publication EP0120428A1, “Benzopyran isomers” (BEECHAM GROUP PLC, priority 1983, dated 1984).

Key:
[1] = disclosed in European patent publication 9912; cited from earlier work
[2] = tested on: Spontaneously hypertensive rats; test: Systolic blood pressure and heart rate by modified tail cuff method in spontaneously hypertensive rats; format: in vivo; settings: 0.3 mg/kg p.o.; for %Change in Systolic Blood Blood: initial blood pressure 180±7mmHg; for %Change in Heart Rate: initial heart rate 507±5beats/min
Procedure: Systolic blood pressures were recorded by a modification of the tail cuff method described by I.M. Claxton, M.G. Palfreyman, R.H. Poyser, R.L. Whiting, European Journal of Pharmacology, 37, 179 (1976).
W+W BP recorder, model 8005, was used to display pulses. Prior to all measurments rats were placed in a heated environment (33.5±0.5°C) before transfer to a restraining cage. Each determination of blood pressure was the mean of at least 6 readings. Spontaneously hypertensive rats (ages 12-18 weeks) with systolic blood pressures >170 mmHg were considered hypertensive.

[3] = 5 rats, 2 hours post dose (2 rats had no measurable pulse)
[4] = 5 rats, 4 hours post dose (3 rats had no measurable pulse)
[5] = 5 rats, 6 hours post dose (2 rats had no measurable pulse)
[6] = 24 hours post dose (4 rats only)

Row | SMILES | blood pressure lowering activity [1] | %Change in Systolic Blood Blood ([2]; 5 rats, 1 hour post dose) [%] | %Change in Systolic Blood Blood [2, 3] [%] | %Change in Systolic Blood Blood [2, 4] [%] | %Change in Systolic Blood Blood [2, 5] [%] | %Change in Heart Rate ([2]; 5 rats, 1 hour post dose) [%] | %Change in Heart Rate [2, 3] [%] | %Change in Heart Rate [2, 4] [%] | %Change in Heart Rate [2, 5] [%] | %Change in Systolic Blood Blood [2, 6] [%] | %Change in Heart Rate [2, 6] [%]
1 | CC1(C)Oc2ccc(C#N)cc2[C@@H](N2CCCC2)[C@@H]1O (relative stereo) [6-cyano-3,4-dihydro-2,2-dimethyl-trans 4-pyrrolidino-2H-benzo[b]pyran-3-ol] | has blood pressure lowering activity | – | – | – | – | – | – | – | – | – | –
2 | CC1(C)Oc2ccc(C#N)cc2[C@@H](N2CCCC2=O)[C@@H]1O (relative stereo) [Compound (1) of Example (3S,4R)-isomer, 6-cyano-3,4-dihydro-2,2-dimethyl-trans-4-(2-oxo-1-pyrrolidinyl)-2H-benzo[b]pyran-3-ol] | – | -59 ± 4 | -52 ± 7 | -32 | -28 ± 8 | -2 ± 2 | -6 ± 3 | -15 | -5 ± 1 | -14 ± 7 | -3 ± 2
3 | CC1(C)Oc2ccc(C#N)cc2[C@@H](N2CCCC2)[C@@H]1O (single isomer, unassigned; isomer 6) [(+)-isomer, 6-cyano-3,4-dihydro-2,2-dimethyl-trans 4-pyrrolidino-2H-benzo[b]pyran-3-ol] | greater blood pressure lowering activity than the (-)- isomer | – | – | – | – | – | – | – | – | – | –
